US9290451B2 (Hoffmann-La Roche Inc., priority 2011, dated 2016)

Assays:
human CB1 receptors = human CB1 receptors (Homo sapiens (Human), UniProt P21554); assay: cAMP assay, CHO cells expressing human CB1 receptors; format: cell-based; settings: CHO cells expressing human CB1, cAMP; read-out: human CB1 EC50
In short: (§1)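 EC50 values come from a TR-FRET cAMP read-out (standard curve 10 μM–0.13 nM cAMP) after 30 min compound exposure at 30 °C in IBMX (1 mM)-containing Krebs Ringer bicarbonate buffer, using CHO cells carrying human CB1 or CB2 receptors.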

human CB2 receptors = human CB2 receptors (Homo sapiens (Human), UniProt P34972); assay: cAMP assay, CHO cells expressing human CB2 receptors; format: cell-based; settings: CHO cells expressing human CB2, cAMP; read-out: human CB2 EC50
In short: as §1

human CB1 receptors, sequence (P21554 whole entry): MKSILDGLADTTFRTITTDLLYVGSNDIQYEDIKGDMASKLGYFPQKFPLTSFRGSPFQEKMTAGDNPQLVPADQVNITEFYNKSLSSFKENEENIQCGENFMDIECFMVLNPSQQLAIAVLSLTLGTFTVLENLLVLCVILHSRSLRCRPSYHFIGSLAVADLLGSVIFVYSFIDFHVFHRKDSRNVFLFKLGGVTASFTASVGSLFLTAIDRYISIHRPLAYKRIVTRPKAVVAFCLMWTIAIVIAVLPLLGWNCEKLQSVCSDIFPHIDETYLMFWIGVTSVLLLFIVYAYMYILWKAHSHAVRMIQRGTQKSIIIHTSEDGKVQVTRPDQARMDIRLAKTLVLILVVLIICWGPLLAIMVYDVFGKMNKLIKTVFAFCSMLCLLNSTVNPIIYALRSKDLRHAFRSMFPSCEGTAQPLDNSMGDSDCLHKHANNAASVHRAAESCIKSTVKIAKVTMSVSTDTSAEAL
human CB2 receptors, sequence (P34972 whole entry): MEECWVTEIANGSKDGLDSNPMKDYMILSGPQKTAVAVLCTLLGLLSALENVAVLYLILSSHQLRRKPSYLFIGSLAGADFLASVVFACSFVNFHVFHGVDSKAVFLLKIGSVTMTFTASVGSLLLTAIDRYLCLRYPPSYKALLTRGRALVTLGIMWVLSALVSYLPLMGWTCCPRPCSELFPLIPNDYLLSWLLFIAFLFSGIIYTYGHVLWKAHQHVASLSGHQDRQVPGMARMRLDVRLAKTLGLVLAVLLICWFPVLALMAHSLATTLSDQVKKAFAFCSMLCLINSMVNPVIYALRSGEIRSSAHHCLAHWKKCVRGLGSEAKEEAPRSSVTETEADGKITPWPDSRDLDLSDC

| Compound | EC50 (human CB1 receptors) | EC50 (human CB2 receptors) |
| --- | --- | --- |
| CC(C)C[C@H](NC(=O)c1ccc(N2CC(O)C2)c(OCC2CC2)n1)C(N)=O [Example 131, 6-Cyclopropylmethoxy-5-(3-hydroxy-azetidin-1-yl)-pyridine-2-carboxylic acid ((S)-1-carbamoyl-3-methyl-butyl)-amide] | > 10000 nM | 78.4 nM |
| CNC(=O)[C@H](CC(C)C)NC(=O)c1cccc(-c2ccc(F)c(Cl)c2)n1 [Example 212, (S)-6-(3-Chloro-4-fluorophenyl)-N-(4-methyl-1-(methylamino)-1-oxopentan-2-yl)picolinamide] | > 10000 nM | 13.4 nM |
| CC(C)C[C@H](NC(=O)c1ccc(N2CC(F)(F)C2)c(OCC2CC2)n1)C(N)=O [Example 132, 6-Cyclopropylmethoxy-5-(3,3-difluoro-azetidin-1-yl)-pyridine-2-carboxylic acid ((S)-1-carbamoyl-3-methyl-butyl)-amide] | 1130 nM | 0.8 nM |
| O=C(N[C@H](c1ccccn1)C(F)(F)F)c1cccc(Cc2ccc(F)cc2)n1 [Example 278, 6-(4-Fluoro-benzyl)-pyridine-2-carboxylic acid ((R)-2,2,2-trifluoro-1-pyridin-2-yl-ethyl)-amide] | 357 nM | 20.2 nM |
| Cc1nc(C(C)(C)NC(=O)c2ccc(N3CCC34COC4)c(OCC3CC3)n2)no1 [Example 235, 6-Cyclopropylmethoxy-5-(6-oxa-1-aza-spiro[3.3]hept-1-yl)-pyridine-2-carboxylic acid [1-methyl-1-(5-methyl-[1,2,4]oxadiazol-3-yl)-ethyl]-amide] | > 10000 nM | 41.3 nM |
| CCOC(=O)C(CC)(CC)NC(=O)c1ccc(Br)c(OCC2CC2)n1 [Example 265, 2-[(5-Bromo-6-cyclopropylmethoxy-pyridine-2-carbonyl)-amino]-2-ethyl-butyric acid ethyl ester] | > 10000 nM | 2.8 nM |
| Cc1nc(C(C)(C)NC(=O)c2ccc(C3CCCO3)c(OCC3CC3)n2)no1 (stereo not shown) [Example 123, 6-Cyclopropylmethoxy-5-(tetrahydro-furan-2-yl)-pyridine-2-carboxylic acid [1-methyl-1-(5-methyl-[1,2,4]oxadiazol-3-yl)-ethyl]-amide] | > 10000 nM | 20 nM |
| CCC(CC)(NC(=O)c1ccc(C(F)(F)F)c(OCC2CCCO2)n1)C(=O)N(C)C (stereo not shown) [Example 264, 6-(Tetrahydro-furan-2-ylmethoxy)-5-trifluoromethyl-pyridine-2-carboxylic acid (1-dimethylcarbamoyl-1-ethyl-propyl)-amide] | 602 nM | 2.7 nM |
| CC(C)C[C@H](NC(=O)c1ccc(C2CC2)c(Cc2ccc(F)cc2)n1)C(N)=O [Example 155, 5-Cyclopropyl-6-(4-fluoro-benzyl)-pyridine-2-carboxylic acid ((S)-1-carbamoyl-3-methyl-butyl)-amide] | 123 nM | 0.7 nM |
| NC(=O)[C@H](NC(=O)c1ccc(C2CC2)c(OCC2CC2)n1)C1CC1 [Example 375, 5-Cyclopropyl-6-cyclopropylmethoxy-pyridine-2-carboxylic acid ((−)-carbamoyl-cyclopropyl-methyl)-amide] | > 10000 nM | 358 nM |
| O=C(NC1(c2nccs2)COC1)c1ccc(C2CC2)c(OCC(F)(F)F)n1 [Example 304, 5-Cyclopropyl-6-(2,2,2-trifluoro-ethoxy)-pyridine-2-carboxylic acid (3-thiazol-2-yl-oxetan-3-yl)-amide] | > 10000 nM | 135 nM |
| CNC(=O)[C@@H](NC(=O)c1ccc(N2CC(F)(F)C2)c(OCC2CC2)n1)C(C)(C)C [Example 208, (S)-6-(Cyclopropylmethoxy)-5-(3,3-difluoroazetidin-1-yl)-N-(3,3-dimethyl-1-(methylamino)-1-oxobutan-2-yl)picolinamide] | > 10000 nM | 8.9 nM |
| CCC(CC)(NC(=O)c1ccc(C(F)(F)F)c(OCC2CC2)n1)C(=O)OC [Example 249, 2-[(6-Cyclopropylmethoxy-5-trifluoromethyl-pyridine-2-carbonyl)-amino]-2-ethyl-butyric acid methyl ester] | > 10000 nM | 2.2 nM |
| CC1(C)CCc2ccc(C(=O)NC[C@](C)(O)C3CC3)nc2C1 [Example 143, 7,7-Dimethyl-5,6,7,8-tetrahydro-quinoline-2-carboxylic acid ((R)-2-cyclopropyl-2-hydroxy-propyl)-amide] | > 10000 nM | 410 nM |
| Cc1nc(C(C)(C)NC(=O)c2ccc(C3CC3)c(OCC3CCCO3)n2)no1 (stereo not shown) [Example 166, 5-Cyclopropyl-6-(tetrahydro-furan-2-ylmethoxy)-pyridine-2-carboxylic acid [1-methyl-1-(5-methyl-[1,2,4]oxadiazol-3-yl)-ethyl]-amide] | > 10000 nM | 30.5 nM |
| CC(C)(O)[C@H](CC1CC1)NC(=O)c1ccc(N2CC(F)(F)C2)c(OCC2CC2)n1 [Example 135, 6-Cyclopropylmethoxy-5-(3,3-difluoro-azetidin-1-yl)-pyridine-2-carboxylic acid ((S)-1-cyclopropylmethyl-2-hydroxy-2-methyl-propyl)-amide] | > 10000 nM | 38.2 nM |
| Cn1c(C(C)(C)NC(=O)c2ccc(C3CC3)c(OCC3CC3)n2)noc1=O [Example 338, 5-Cyclopropyl-6-cyclopropylmethoxy-pyridine-2-carboxylic acid [1-methyl-1-(4-methyl-5-oxo-4,5-dihydro-[1,2,4]oxadiazol-3-yl)-ethyl]-amide] | > 10000 nM | 534 nM |
| O=C(NN1CCCCC1)c1ccc(Cl)c(-c2cccc(Cl)c2)n1 [Example 66, 5-Chloro-6-(3-chloro-phenyl)-pyridine-2-carboxylic acid piperidin-1-ylamide] | > 10000 nM | 216 nM |
| CCC(CC)(NC(=O)c1ccc(C(F)(F)F)c(OCC2CC2)n1)C(=O)N1CC(F)(F)C1 [Example 316, 6-Cyclopropylmethoxy-5-trifluoromethyl-pyridine-2-carboxylic acid [1-(3,3-difluoro-azetidine-1-carbonyl)-1-ethyl-propyl]-amide] | > 10000 nM | 3.1 nM |
| COC(=O)C1CCCCC1NC(=O)c1cccc(C2CCCCC2)n1 (stereo not shown) [Example 92, 2-[(6-Cyclohexyl-pyridine-2-carbonyl)-amino]-cyclohexanecarboxylic acid methyl ester] | > 10000 nM | 320 nM |
| CCC(CC)(NC(=O)c1ccc(C(F)(F)F)c(OCC2CC2)n1)C(=O)O [Example 252, 2-[(6-Cyclopropylmethoxy-5-trifluoromethyl-pyridine-2-carbonyl)-amino]-2-ethyl-butyric acid] | > 10000 nM | 552 nM |
| CCC(CC)(NC(=O)c1ccc(C2CC2)c(-c2cccc(Cl)c2)n1)C(=O)NC [Example 71, 6-(3-Chloro-phenyl)-5-cyclopropyl-pyridine-2-carboxylic acid (1-ethyl-1-methylcarbamoyl-propyl)-amide] | > 10000 nM | 61.2 nM |
| CC(C)(NC(=O)c1ccc(C2CCCC2)c(OCC2CC2)n1)c1nccs1 [Example 55, 5-Cyclopentyl-6-cyclopropylmethoxy-pyridine-2-carboxylic acid (1-methyl-1-thiazol-2-yl-ethyl)-amide] | 1390 nM | 31.7 nM |
